Experimental data reported in ChEMBL document CHEMBL5058564, “EUbOPEN Chemogenomics Library 2 (Incucyte)” (2022).

Assays:
Type in all cases: toxicity, cell-based
HEK-293T = assay: Incucyte cell viability with HEK293T; settings: human, 10 µM, compound concentration 10 uM
Fibroblast = assay: Incucyte cell viability with human fibroblast; settings: 10 µM, compound concentration 10 uM
U2OS = assay: Incucyte cell viability with U2OS; settings: human, 10 µM, compound concentration 10 uM
[1] = 6 h, replicate number 1, timepoint 6 hours
[2] = 6 h, replicate number 2, timepoint 6 hours
[3] = 12 h, replicate number 1, timepoint 12 hours
[4] = 12 h, replicate number 2, timepoint 12 hours
[5] = 18 h, replicate number 1, timepoint 18 hours
[6] = 18 h, replicate number 2, timepoint 18 hours
[7] = 24 h, replicate number 1, timepoint 24 hours
[8] = 24 h, replicate number 2, timepoint 24 hours
[9] = 0 h, replicate number 2, timepoint 0 hours
[10] = 0 h, replicate number 1, timepoint 0 hours
Also: unitless GR value; below 1 slowed growth and below 0 cell loss.

Q: What does the source list for CC[S+]([O-])c1nc(-c2cccc(OCc3ccccc3)c2)cc(C(F)(F)F)n1 (stereo not given)?
A: Growth Rate (HEK-293T; [1]): -0.65; Growth Rate (HEK-293T; [2]): -0.82; Growth Rate (HEK-293T; [3]): -0.45; Growth Rate (HEK-293T; [4]): -0.65; Growth Rate (HEK-293T; [5]): -0.27; Growth Rate (HEK-293T; [6]): -0.43; Growth Rate (HEK-293T; [7]): -0.13; Growth Rate (HEK-293T; [8]): -0.24; Growth Rate (Fibroblast; [1]): -0.79; Growth Rate (Fibroblast; [2]): -0.73; Growth Rate (Fibroblast; [3]): -0.65; Growth Rate (Fibroblast; [4]): -0.52; Growth Rate (Fibroblast; [5]): -0.48; Growth Rate (Fibroblast; [7]): -0.4; Growth Rate (Fibroblast; [8]): -0.5; Growth Rate (U2OS; [9]): -1; Growth Rate (U2OS; [1]): -0.91; Growth Rate (U2OS; [2]): -0.17; Growth Rate (U2OS; [3]): -0.48; Growth Rate (U2OS; [4]): -0.16; Growth Rate (U2OS; [5]): -0.19; Growth Rate (U2OS; [6]): 0.03; Growth Rate (U2OS; [7]): -0.09; Growth Rate (U2OS; [8]): 0.16

Q: For Cl.N=C(N)NC(=O)Cc1c(Cl)cccc1Cl [GUANFACINE HYDROCHLORIDE], which “Growth Rate” value (HEK-293T; [10]) is on record?
A: 0.44

Q: And the “Growth Rate” value (HEK-293T; [1])?
A: 0.87

Q: What about the “Growth Rate” value (HEK-293T; [3]) of the same molecule?
A: 0.84

Q: And the “Growth Rate” value (HEK-293T; [5])?
A: 0.76

Q: What about the “Growth Rate” value (HEK-293T; [7]) of the same molecule?
A: 0.76

Q: What about the “Growth Rate” value (Fibroblast; [10]) of the same molecule?
A: 0.58

Q: And the “Growth Rate” value (Fibroblast; [9])?
A: 0.01

Q: And the “Growth Rate” value (Fibroblast; [5])?
A: 0.88

Q: And the “Growth Rate” value (Fibroblast; [6])?
A: 0.92

Q: And the “Growth Rate” value (Fibroblast; [7])?
A: 0.38

Q: What about the “Growth Rate” value (Fibroblast; [8]) of the same molecule?
A: 0.81

Q: And the “Growth Rate” value (U2OS; [1])?
A: 0.84

Q: And the “Growth Rate” value (U2OS; [3])?
A: 0.99

Q: With N[C@@]1(C(=O)O)CC[C@H]2[C@H](C(=O)O)[C@H]21 as the molecule, how does the “Growth Rate” value (HEK-293T; [10]) read?
A: 0.6

Q: And the “Growth Rate” value (HEK-293T; [9])?
A: 0.94

Q: What about the “Growth Rate” value (HEK-293T; [8]) of the same molecule?
A: 0.86

Q: And the “Growth Rate” value (Fibroblast; [10])?
A: -0.03

Q: And the “Growth Rate” value (Fibroblast; [9])?
A: 0.85

Q: What about the “Growth Rate” value (Fibroblast; [1]) of the same molecule?
A: 0.5

Q: And the “Growth Rate” value (Fibroblast; [3])?
A: 0.44

Q: What about the “Growth Rate” value (Fibroblast; [4]) of the same molecule?
A: 0.63

Q: And the “Growth Rate” value (Fibroblast; [5])?
A: 0.57

Q: And the “Growth Rate” value (Fibroblast; [6])?
A: 0.79

Q: What about the “Growth Rate” value (Fibroblast; [7]) of the same molecule?
A: 0.52

Q: What about the “Growth Rate” value (Fibroblast; [8]) of the same molecule?
A: 0.35

Q: What about the “Growth Rate” value (U2OS; [9]) of the same molecule?
A: -1

Q: What about the “Growth Rate” value (U2OS; [1]) of the same molecule?
A: 0.86

Q: What about the “Growth Rate” value (U2OS; [2]) of the same molecule?
A: 0.76

Q: What about the “Growth Rate” value (U2OS; [3]) of the same molecule?
A: 0.67

Q: And the “Growth Rate” value (U2OS; [4])?
A: 0.94

Q: What about the “Growth Rate” value (U2OS; [5]) of the same molecule?
A: 0.7

Q: What about the “Growth Rate” value (U2OS; [6]) of the same molecule?
A: 1

Q: What about the “Growth Rate” value (U2OS; [8]) of the same molecule?
A: 0.97

Q: O=C1NC(=O)C(c2ccccc2[N+](=O)[O-])=C1Nc1ccc(O)c(Cl)c1 was tested. Which “Growth Rate” value (HEK-293T; [10]) did it give?
A: 0.17

Q: What about the “Growth Rate” value (HEK-293T; [9]) of the same molecule?
A: 0.13

Q: And the “Growth Rate” value (Fibroblast; [10])?
A: -0.16

Q: And the “Growth Rate” value (Fibroblast; [9])?
A: 0.11

Q: And the “Growth Rate” value (U2OS; [10])?
A: 0.02

Q: And the “Growth Rate” value (U2OS; [9])?
A: -1

Q: And the “Growth Rate” value (U2OS; [3])?
A: 0.95

Q: And the “Growth Rate” value (U2OS; [7])?
A: 0.84

Q: Which results are given for COCCN1CCC(c2cc(CN(C)C(=O)c3cccc(Oc4ccccc4)c3)ccn2)CC1?
A: Growth Rate (HEK-293T; [9]): 0.76; Growth Rate (HEK-293T; [1]): 0.44; Growth Rate (HEK-293T; [3]): 0.83; Growth Rate (HEK-293T; [4]): 0.93; Growth Rate (HEK-293T; [5]): 0.81; Growth Rate (HEK-293T; [6]): 0.92; Growth Rate (HEK-293T; [7]): 1; Growth Rate (HEK-293T; [8]): 0.89; Growth Rate (Fibroblast; [10]): 0.94; Growth Rate (Fibroblast; [1]): 0.77; Growth Rate (U2OS; [10]): -0.65; Growth Rate (U2OS; [9]): -0.76; Growth Rate (U2OS; [1]): 0.63; Growth Rate (U2OS; [2]): 0.6; Growth Rate (U2OS; [3]): 0.74; Growth Rate (U2OS; [4]): 0.87; Growth Rate (U2OS; [5]): 0.67; Growth Rate (U2OS; [6]): 0.97; Growth Rate (U2OS; [7]): 0.93

Q: CN1CCN(c2cc(-c3ccccc3)nc(N)n2)CC1 was tested. Which “Growth Rate” value (HEK-293T; [2]) did it give?
A: 0.96

Q: What about the “Growth Rate” value (Fibroblast; [10]) of the same molecule?
A: 0.2

Q: What about the “Growth Rate” value (Fibroblast; [9]) of the same molecule?
A: 0.38

Q: And the “Growth Rate” value (Fibroblast; [3])?
A: 0.86

Q: What about the “Growth Rate” value (Fibroblast; [5]) of the same molecule?
A: 0.76

Q: What about the “Growth Rate” value (Fibroblast; [7]) of the same molecule?
A: 0.83

Q: And the “Growth Rate” value (U2OS; [10])?
A: 0.75

Q: And the “Growth Rate” value (U2OS; [2])?
A: 0.59

Q: And the “Growth Rate” value (U2OS; [4])?
A: 0.96

Q: And the “Growth Rate” value (U2OS; [5])?
A: 0.97

Q: Which “Growth Rate” value (HEK-293T; [1]) does the source give for Cn1cc(-c2ccc3occ(-c4cccc(-c5ccncc5)c4)c3n2)cn1 here?
A: -0.87

Q: What about the “Growth Rate” value (HEK-293T; [2]) of the same molecule?
A: -0.61

Q: And the “Growth Rate” value (HEK-293T; [3])?
A: -0.67

Q: What about the “Growth Rate” value (HEK-293T; [4]) of the same molecule?
A: -0.44

Q: And the “Growth Rate” value (HEK-293T; [5])?
A: -0.56

Q: What about the “Growth Rate” value (HEK-293T; [6]) of the same molecule?
A: -0.33

Q: What about the “Growth Rate” value (HEK-293T; [7]) of the same molecule?
A: -0.43

Q: What about the “Growth Rate” value (HEK-293T; [8]) of the same molecule?
A: -0.32

Q: And the “Growth Rate” value (Fibroblast; [1])?
A: -0.96

Q: And the “Growth Rate” value (Fibroblast; [3])?
A: -0.95

Q: And the “Growth Rate” value (Fibroblast; [4])?
A: -0.62

Q: And the “Growth Rate” value (Fibroblast; [5])?
A: -0.87

Q: And the “Growth Rate” value (Fibroblast; [6])?
A: -0.23

Q: And the “Growth Rate” value (Fibroblast; [7])?
A: -0.84

Q: What about the “Growth Rate” value (Fibroblast; [8]) of the same molecule?
A: 0.02

Q: And the “Growth Rate” value (U2OS; [10])?
A: -0.88

Q: And the “Growth Rate” value (U2OS; [1])?
A: -0.02

Q: What about the “Growth Rate” value (U2OS; [2]) of the same molecule?
A: -0.14

Q: What about the “Growth Rate” value (U2OS; [3]) of the same molecule?
A: -0.03

Q: What about the “Growth Rate” value (U2OS; [4]) of the same molecule?
A: -0.05

Q: And the “Growth Rate” value (U2OS; [5])?
A: -0.03

Q: And the “Growth Rate” value (U2OS; [6])?
A: 0.09

Q: What about the “Growth Rate” value (U2OS; [7]) of the same molecule?
A: -0.02

Q: And the “Growth Rate” value (U2OS; [8])?
A: 0.09

Q: Which results are given for Cc1ccc(Cn2nc(C(=O)N[C@@H]3C(C)(C)[C@@H]4CC[C@@]3(C)C4)cc2-c2ccc(Cl)c(C)c2)cc1?
A: Growth Rate (HEK-293T; [2]): 0.75; Growth Rate (HEK-293T; [4]): 0.96; Growth Rate (HEK-293T; [5]): 0.94; Growth Rate (HEK-293T; [7]): 0.95; Growth Rate (Fibroblast; [1]): 0.46; Growth Rate (Fibroblast; [2]): 0.01; Growth Rate (Fibroblast; [3]): 0.76; Growth Rate (Fibroblast; [4]): 0.14; Growth Rate (Fibroblast; [5]): 0.78; Growth Rate (Fibroblast; [7]): 0.72; Growth Rate (U2OS; [10]): -1; Growth Rate (U2OS; [2]): 0.89; Growth Rate (U2OS; [3]): 0.92; Growth Rate (U2OS; [4]): 0.74; Growth Rate (U2OS; [6]): 0.82; Growth Rate (U2OS; [7]): 0.86; Growth Rate (U2OS; [8]): 0.74

Q: What does the source list for CCOc1c2c(c(OCC)c3ncccc13)CN(c1ccc(CS(=O)(=O)NC(=O)Cc3ccccc3OC)cc1C)C2=O?
A: Growth Rate (HEK-293T; [9]): 0.82; Growth Rate (HEK-293T; [1]): 0.48; Growth Rate (HEK-293T; [3]): 0.83; Growth Rate (HEK-293T; [5]): 0.9; Growth Rate (HEK-293T; [6]): 1; Growth Rate (HEK-293T; [7]): 0.87; Growth Rate (Fibroblast; [10]): 0.27; Growth Rate (Fibroblast; [9]): 0.58; Growth Rate (Fibroblast; [1]): 0.32; Growth Rate (Fibroblast; [2]): -0.34; Growth Rate (Fibroblast; [3]): 0.49; Growth Rate (Fibroblast; [4]): -0.12; Growth Rate (Fibroblast; [5]): 0.23; Growth Rate (Fibroblast; [6]): -0.18; Growth Rate (Fibroblast; [7]): -0.06; Growth Rate (Fibroblast; [8]): -0.4; Growth Rate (U2OS; [10]): -0.69; Growth Rate (U2OS; [2]): 0.75; Growth Rate (U2OS; [6]): 1

Q: What does the source list for CSc1nc(NC2CCCC2)c([N+](=O)[O-])c(NC2CCCC2)n1 [GS-39783]?
A: Growth Rate (HEK-293T; [10]): 0.5; Growth Rate (HEK-293T; [9]): 0.78; Growth Rate (HEK-293T; [3]): 0.97; Growth Rate (HEK-293T; [4]): 0.85; Growth Rate (HEK-293T; [6]): 0.92; Growth Rate (Fibroblast; [9]): 0.9; Growth Rate (Fibroblast; [1]): -0.14; Growth Rate (Fibroblast; [2]): 0.69; Growth Rate (Fibroblast; [3]): -0.14; Growth Rate (Fibroblast; [5]): 0.18; Growth Rate (Fibroblast; [7]): 0.19; Growth Rate (U2OS; [10]): 0.05; Growth Rate (U2OS; [9]): -1; Growth Rate (U2OS; [2]): 0.83; Growth Rate (U2OS; [4]): 0.75; Growth Rate (U2OS; [6]): 0.75; Growth Rate (U2OS; [8]): 0.92

Q: Which “Growth Rate” value (HEK-293T; [9]) does the source give for CN1CCC(C(=O)c2cccc(NC(=O)c3c(F)cc(F)cc3F)n2)CC1 here?
A: -1

Q: What about the “Growth Rate” value (HEK-293T; [1]) of the same molecule?
A: 0.24

Q: And the “Growth Rate” value (HEK-293T; [3])?
A: 0.74

Q: What about the “Growth Rate” value (HEK-293T; [5]) of the same molecule?
A: 0.81

Q: What about the “Growth Rate” value (HEK-293T; [7]) of the same molecule?
A: 0.93

Q: And the “Growth Rate” value (Fibroblast; [9])?
A: 0.32

Q: And the “Growth Rate” value (Fibroblast; [2])?
A: 0.9

Q: And the “Growth Rate” value (Fibroblast; [3])?
A: 0.6

Q: And the “Growth Rate” value (Fibroblast; [5])?
A: 0.86

Q: And the “Growth Rate” value (Fibroblast; [6])?
A: 0.96

Q: What about the “Growth Rate” value (Fibroblast; [7]) of the same molecule?
A: 0.59

Q: And the “Growth Rate” value (Fibroblast; [8])?
A: 0.78

Q: What about the “Growth Rate” value (U2OS; [9]) of the same molecule?
A: 0.68

Q: What about the “Growth Rate” value (U2OS; [1]) of the same molecule?
A: 0.94
